Measured values reported in BindingDB's records for doi:10.1016/s0968-0896(99)00215-1 (Parke-Davis Pharmaceutical Research, 1999).

Biological target: T1, Dimer of Gag-Pol polyprotein [489-587] (Human immunodeficiency virus 1, UniProt P12497)
T1 construct: 489-587
Test: Protease Inhibition Assay
Method: For determination of IC50 values, HIV-1 protease was added to assay buffer containing inhibitor and the substrate (H-His-Lys-Ala-Arg-Val-Leu- (p-NO2) Phe-Glu-Ala-norleucine-Ser-NH2). The Leu- (p-NO2) Phe bond of the substrate was cleaved by the enzyme, and the substrate and products were separated by reversed-phase HPLC. Absorbance was measured at 220 nm, peak areas were determined, and percentage conversion to product was calculated.

Structure (SMILES) | IC50 (pH 6.2, 37 °C) [nM] | IC50 [nM] | other results
Cc1cc(SC2C(=O)CC(CCc3ccc(N)cc3)(C(C)C)OC2=O)c(C(C)(C)C)cc1CO (stereo not drawn) [6-[2-(4-aminophenyl)ethyl]-3-{[2-tert-butyl-4-(hydroxymethyl)-5-methylphenyl]sulfanyl}-4-hydroxy-6-(propan-2-yl)-5,6-dihydro-2H-pyran-2-one] | – | – | Ki: 0.43 nM
Cc1cc(SC2C(=O)CC(CCc3ccc(O)cc3)(CC(C)C)OC2=O)c(C(C)(C)C)cc1CO (stereo not drawn) [3-{[2-tert-butyl-4-(hydroxymethyl)-5-methylphenyl]sulfanyl}-4-hydroxy-6-[2-(4-hydroxyphenyl)ethyl]-6-(2-methylpropyl)-5,6-dihydro-2H-pyran-2-one] | 3.3 | – | –
Cc1cc(SC2C(=O)CC(CCc3ccc(O)cc3)(C3CCCCC3)OC2=O)c(C(C)(C)C)cc1CO (stereo not drawn) [PD 178390 Analog 21] | 2.5 | – | –
Cc1cc(SC2C(=O)CC(CCc3ccc(O)cc3)(C3CCCC3)OC2=O)c(C(C)(C)C)cc1CO (stereo not drawn) [3-{[2-tert-butyl-4-(hydroxymethyl)-5-methylphenyl]sulfanyl}-6-cyclopentyl-4-hydroxy-6-[2-(4-hydroxyphenyl)ethyl]-5,6-dihydro-2H-pyran-2-one] | 3.1 | – | –
Cc1ccc(C(C)(C)C)c(SC2C(=O)CC(CCc3ccc(O)cc3)(C(C)C)OC2=O)c1 (stereo not drawn) [(3-(2-tert-Butyl-5-methyl-phenylsulfanyl)-4-hydroxy-6-[2-(4-hydroxy-phenyl)-ethyl]-6-isopropyl-5,6-dihydro-pyran-2-one] | 4.6 | – | –
Cc1cc(SC2C(=O)CC(CCc3ccc(O)cc3)(C(C)C)OC2=O)c(C(C)(C)C)cc1OCCO (stereo not drawn) [(3-(2-tert-Butyl-4-(2-hydroxy-ethoxy)-5-methyl-phenylsulfanyl)-4-hydroxy-6-[2-(4-hydroxy-phenyl)-ethyl]-6-isopropyl-5,6-dihydro-pyran-2-one] | – | 2.8 | –
COCOCCOc1cc(C(C)(C)C)c(SC2C(=O)CC(C)(CCc3ccc(O)cc3)OC2=O)cc1C (stereo not drawn) [3-({2-tert-butyl-4-[2-(methoxymethoxy)ethoxy]-5-methylphenyl}sulfanyl)-4-hydroxy-6-[2-(4-hydroxyphenyl)ethyl]-6-methyl-5,6-dihydro-2H-pyran-2-one] | – | 20 | –
Cc1cc(SC2C(=O)C[C@](CCc3ccc(N)cc3)(C(C)C)OC2=O)c(C(C)(C)C)cc1CO (stereo partly drawn) [(6R)-6-[2-(4-aminophenyl)ethyl]-3-{[2-tert-butyl-4-(hydroxymethyl)-5-methylphenyl]sulfanyl}-4-hydroxy-6-(propan-2-yl)-5,6-dihydro-2H-pyran-2-one] | – | – | Ki: 25 nM
Cc1cc(SC2C(=O)C[C@@](CCc3ccc(N)cc3)(C(C)C)OC2=O)c(C(C)(C)C)cc1CO (stereo partly drawn) [(6S)-6-[2-(4-aminophenyl)ethyl]-3-{[2-tert-butyl-4-(hydroxymethyl)-5-methylphenyl]sulfanyl}-4-hydroxy-6-(propan-2-yl)-5,6-dihydro-2H-pyran-2-one] | – | – | Ki: 0.11 nM
Cc1cc(SC2C(=O)CC(CCc3ccc(O)cc3)(C3CCCCC3)OC2=O)c(C(C)(C)C)cc1O (stereo not drawn) [3-(2-tert-Butyl-4-hydroxy-5-methyl-phenylsulfanyl)-6-cyclohexyl-4-hydroxy-6-[2-(4-hydroxy-phenyl)-ethyl]-5,6-dihydro-pyran-2-one] | 2.9 | – | –
CCCCCC1(CCc2ccc(O)cc2)CC(=O)C(Sc2cc(C)c(CO)cc2C(C)(C)C)C(=O)O1 (stereo not drawn) [3-{[2-tert-butyl-4-(hydroxymethyl)-5-methylphenyl]sulfanyl}-4-hydroxy-6-[2-(4-hydroxyphenyl)ethyl]-6-pentyl-5,6-dihydro-2H-pyran-2-one] | 5.9 | – | –
Cc1cc(SC2C(=O)C[C@@](CCc3ccccc3)(C(C)C)OC2=O)c(C(C)(C)C)cc1CO (stereo partly drawn) [(6S)-3-{[2-tert-butyl-4-(hydroxymethyl)-5-methylphenyl]sulfanyl}-4-hydroxy-6-(2-phenylethyl)-6-(propan-2-yl)-5,6-dihydro-2H-pyran-2-one] | – | – | Ki: 0.09 nM
Cc1ccc(C(C)(C)C)c(SC2C(=O)CC(CCc3ccc(O)cc3)(C3CCCCC3)OC2=O)c1 (stereo not drawn) [3-[(2-tert-butyl-5-methylphenyl)sulfanyl]-6-cyclohexyl-4-hydroxy-6-[2-(4-hydroxyphenyl)ethyl]-5,6-dihydro-2H-pyran-2-one] | 33 | – | –
Cc1cc(SC2C(=O)CC(CCc3ccccc3)(C(C)C)OC2=O)c(C(C)(C)C)cc1OCCO (stereo not drawn) [3-{[2-tert-butyl-4-(2-hydroxyethoxy)-5-methylphenyl]sulfanyl}-4-hydroxy-6-(2-phenylethyl)-6-(propan-2-yl)-5,6-dihydro-2H-pyran-2-one] | – | 2.6 | –
CCCC1(CCc2ccc(O)cc2)CC(=O)C(Sc2cc(C)c(CO)cc2C(C)(C)C)C(=O)O1 (stereo not drawn) [3-{[2-tert-butyl-4-(hydroxymethyl)-5-methylphenyl]sulfanyl}-4-hydroxy-6-[2-(4-hydroxyphenyl)ethyl]-6-propyl-5,6-dihydro-2H-pyran-2-one] | 2.6 | – | –
CCCCCC1(CCc2ccc(O)cc2)CC(=O)C(Sc2cc(C)c(OCCO)cc2C(C)(C)C)C(=O)O1 (stereo not drawn) [3-{[2-tert-butyl-4-(2-hydroxyethoxy)-5-methylphenyl]sulfanyl}-4-hydroxy-6-[2-(4-hydroxyphenyl)ethyl]-6-pentyl-5,6-dihydro-2H-pyran-2-one] | – | 2.9 | –
CCCC1(CCc2ccc(O)cc2)CC(=O)C(Sc2cc(C)c(OCCO)cc2C(C)(C)C)C(=O)O1 (stereo not drawn) [3-{[2-tert-butyl-4-(2-hydroxyethoxy)-5-methylphenyl]sulfanyl}-4-hydroxy-6-[2-(4-hydroxyphenyl)ethyl]-6-propyl-5,6-dihydro-2H-pyran-2-one] | – | 6 | –

Structure (SMILES) | IC50 (pH 6.2, 37 °C) [nM] | IC50 [nM] | other results
Cc1cc(SC2C(=O)CC(CCc3ccccc3)(C(C)C)OC2=O)c(C(C)(C)C)cc1CO (stereo not drawn) [3-{[2-tert-butyl-4-(hydroxymethyl)-5-methylphenyl]sulfanyl}-4-hydroxy-6-(2-phenylethyl)-6-(propan-2-yl)-5,6-dihydro-2H-pyran-2-one] | – | 2.2 | –
Cc1cc(SC2C(=O)CC(CCc3ccc(O)cc3)(C3CCC3)OC2=O)c(C(C)(C)C)cc1CO (stereo not drawn) [3-{[2-tert-butyl-4-(hydroxymethyl)-5-methylphenyl]sulfanyl}-6-cyclobutyl-4-hydroxy-6-[2-(4-hydroxyphenyl)ethyl]-5,6-dihydro-2H-pyran-2-one] | 2.2 | – | –
Cc1cc(SC2C(=O)CC(CCc3ccc(O)cc3)(C(C)C)OC2=O)c(C(C)(C)C)cc1CO (stereo not drawn) [3-{[2-tert-butyl-4-(hydroxymethyl)-5-methylphenyl]sulfanyl}-4-hydroxy-6-[2-(4-hydroxyphenyl)ethyl]-6-(propan-2-yl)-5,6-dihydro-2H-pyran-2-one] | – | – | Ki (pH 6.2, 37 °C): 0.17 nM
Cc1cc(SC2C(=O)CC(CCc3ccc(O)cc3)(C3CCCC3)OC2=O)c(C(C)(C)C)cc1OCCO (stereo not drawn) [3-{[2-tert-butyl-4-(2-hydroxyethoxy)-5-methylphenyl]sulfanyl}-6-cyclopentyl-4-hydroxy-6-[2-(4-hydroxyphenyl)ethyl]-5,6-dihydro-2H-pyran-2-one] | – | 2.8 | –
Cc1cc(SC2C(=O)CC(CCc3ccccc3)(c3ccccc3)OC2=O)c(C(C)(C)C)cc1CO (stereo not drawn) [PD 178390 Analog 38] | – | 6.5 | –
Cc1cc(SC2C(=O)CC(CCc3ccccc3)(C(C)C)OC2=O)c(C(C)(C)C)cc1O (stereo not drawn) | – | – | Ki: 1.1 nM
Cc1ccc(C(C)(C)C)c(SC2C(=O)CC(CCc3ccc(O)cc3)(C3CC3)OC2=O)c1 (stereo not drawn) [(3-(2-tert-Butyl-5-methyl-phenylsulfanyl)-6-cyclopropyl-4-hydroxy-6-[2-(4-hydroxy-phenyl)-ethyl]-5,6-dihydro-pyran-2-one] | 8 | – | –
Cc1ccc(C(C)(C)C)c(SC2C(=O)CC(C)(CCc3ccc(O)cc3)OC2=O)c1 (stereo not drawn) [(3-(2-tert-Butyl-5-methyl-phenylsulfanyl)-4-hydroxy-6-[2-(4-hydroxy-phenyl)-ethyl]-6-methyl-5,6-dihydro-pyran-2-one] | 9.5 | – | –
CCCCC1(CCc2ccc(O)cc2)CC(=O)C(Sc2cc(C)c(CO)cc2C(C)(C)C)C(=O)O1 (stereo not drawn) [6-butyl-3-{[2-tert-butyl-4-(hydroxymethyl)-5-methylphenyl]sulfanyl}-4-hydroxy-6-[2-(4-hydroxyphenyl)ethyl]-5,6-dihydro-2H-pyran-2-one] | 4.1 | – | –
Cc1cc(SC2C(=O)CC(CCc3ccc(O)cc3)(C(C)C)OC2=O)c(C(C)(C)C)cc1O (stereo not drawn) [PD 178390 Analog 23] | – | – | Ki (pH 6.2, 37 °C): 0.03 nM
Cc1cc(SC2C(=O)C[C@](CCc3ccccc3)(C(C)C)OC2=O)c(C(C)(C)C)cc1CO (stereo partly drawn) [(6R)-3-{[2-tert-butyl-4-(hydroxymethyl)-5-methylphenyl]sulfanyl}-4-hydroxy-6-(2-phenylethyl)-6-(propan-2-yl)-5,6-dihydro-2H-pyran-2-one] | – | – | Ki: 160 nM
Cc1ccc(C(C)(C)C)c(SC2C(=O)CC(CCc3ccc(O)cc3)(C3CCCC3)OC2=O)c1 (stereo not drawn) [(3-(2-tert-Butyl-5-methyl-phenylsulfanyl)-4-hydroxy-6-[2-(4-hydroxy-phenyl)-ethyl]-6-cyclopentyl-5,6-dihydro-pyran-2-one] | 7.2 | – | –
Cc1cc(SC2C(=O)C[C@](CCc3ccc(O)cc3)(C(C)C)OC2=O)c(C(C)(C)C)cc1CO (stereo partly drawn) [(3-(2-tert-Butyl-4-hydroxymethyl-5-methyl-phenylsulfanyl)-4-hydroxy-6-[2-(4-hydroxypheny)-ethyl]-6-isopropyl-5,6-dihydro-pyran-2-one] | – | – | Ki: 31 nM
Cc1ccc(C(C)(C)C)c(SC2C(=O)CC(CCc3ccccc3)(C(C)C)OC2=O)c1 (stereo not drawn) [3-[(2-tert-butyl-5-methylphenyl)sulfanyl]-4-hydroxy-6-(2-phenylethyl)-6-(propan-2-yl)-5,6-dihydro-2H-pyran-2-one] | – | 1.1 | –
CCCC1(CCc2ccc(O)cc2)CC(=O)C(Sc2cc(C)ccc2C(C)(C)C)C(=O)O1 (stereo not drawn) [3-[(2-tert-butyl-5-methylphenyl)sulfanyl]-4-hydroxy-6-[2-(4-hydroxyphenyl)ethyl]-6-propyl-5,6-dihydro-2H-pyran-2-one] | 19 | – | –
CCCCC1(CCc2ccc(O)cc2)CC(=O)C(Sc2cc(C)c(OCCO)cc2C(C)(C)C)C(=O)O1 (stereo not drawn) [6-butyl-3-{[2-tert-butyl-4-(2-hydroxyethoxy)-5-methylphenyl]sulfanyl}-4-hydroxy-6-[2-(4-hydroxyphenyl)ethyl]-5,6-dihydro-2H-pyran-2-one] | – | 6.4 | –
